# Measurements as given in US20250382344A1, “Soluble GLP1/GIP/NPY2 Receptor Triple Agonists” (Boehringer Ingelheim International GmH, priority 2024, published 2025).
# pEC50: −log10 of the molar value. Like-named read-outs stand apart in the source and are kept apart here.
# Columns and labels:
# [1] = target: T1, hGLP1R (Homo sapiens, UniProt P43220); assay: hGLP1R CreLuc assay in 0.5% and 100% plasma (HEK-293 CRE-luciferase reporter cells); type: cell-based; conditions: HEK-293 reporter cells
# T1 construct: expressed in transfected cells; host or cells: HEK-293 CRE-luciferase reporter cells
# [2] = target: T2, hGIPR (Homo sapiens, UniProt P48546); assay: hGIPR CreLuc assay in 0.5% and 100% plasma (CHO CRE-luciferase reporter cells); type: cell-based
# T2 construct: expressed in transfected cells; host or cells: CHO CRE-luciferase reporter cells
# T2 sequence (P48546 22-466): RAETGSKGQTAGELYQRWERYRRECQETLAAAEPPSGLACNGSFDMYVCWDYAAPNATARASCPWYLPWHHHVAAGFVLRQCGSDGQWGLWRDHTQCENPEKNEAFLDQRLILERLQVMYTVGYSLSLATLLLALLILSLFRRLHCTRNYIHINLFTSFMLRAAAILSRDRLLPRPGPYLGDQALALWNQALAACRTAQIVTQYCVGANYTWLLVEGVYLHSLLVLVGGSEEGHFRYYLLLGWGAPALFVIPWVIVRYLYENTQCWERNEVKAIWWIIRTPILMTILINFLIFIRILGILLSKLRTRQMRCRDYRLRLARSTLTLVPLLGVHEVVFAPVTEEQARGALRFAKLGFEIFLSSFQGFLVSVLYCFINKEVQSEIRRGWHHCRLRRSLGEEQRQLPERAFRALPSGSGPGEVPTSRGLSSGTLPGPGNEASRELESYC
# [3] = Solubility in 0.1 M phosphate buffer at pH 7; type: physicochemical; conditions: 0.1 M phosphate buffer at pH 7, 10 mg/mL final peptide concentration, shaking 2 hours at room temperature, peptides as TFA-salts; measured sample pH 6.5-7.0
# [4] = Mouse PK after intravenous application; type: in vivo; conditions: plasma, male NMRI mice, intravenous 30-60 nmol/kg, non-compartmental analysis
# How it was run: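 Male NMRI mice (30–40 g) dosed 30-60 nmol/kg by tail vein in 50 mM phosphate buffer pH 7.4/3.5% mannitol. Saphenous EDTA blood sampled from conscious animals up to 56 h; plasma peptide quantified by LC-MS. Parameters from non-compartmental analysis of individual profiles.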
# [5] = tested on: Normal NMRI Mice; assay: Effect on acute food intake in normal NMRI mice; type: in vivo; conditions: male NMRI mice, single subcutaneous dose 100 nmol/kg, 24 hours food intake normalized to vehicle group
# Description: Male NMRI mice were obtained from Janvier (Janvier Labs, France) or from Charles River (Charles River Research Models & Services Germany GmbH) at the age of 3 weeks. The animals get a microchip (Datamars, Slim Microchip T-SL) for individual identification after delivery. They were housed with 4 mice per cage under a 12/12 dark-light cycle, light off at 3 p.m. Room temperature was controlled to 21° C.+/−1° C. and humidity 60%+/−20%. Mice had ad libitum access to regular rodent chow (KLIBA Nafag 3040 or Altromin 1324, Brogaarden, Denmark) and tap water.
# Latest transfer into the HM2-System of MBRose, Denmark (real-time monitoring system of food- and water intake) of the animals 5 days before study start, to allow acclimatization to experimental conditions. As the animals were uniquely identified with the microchips, each individual animal was identified by its own microchip upon entry and exit from the food channel via antennae. Randomization of the mice for each study group (n=8; age earliest 6 weeks old) was based on food intake (middle of last three days 24 h-interval) and bodyweight directly before start of the study. A vehicle treated (50 mM phosphate buffer pH 7.4 with 3.5% mannitol) group was included in each experiment. To have the same nutrition standard for each animal the food access was locked eight hours before dark phase. One hour before night, the animals were once treated subcutaneously with the test peptide. Food intake was reported hourly for a period of 24 hours.
# [6] = 0.5% human plasma, read-out: hGLP1R 0.5% hP
# [7] = 0.5% human plasma, read-out: hGIPR 0.5% hP
# [8] = 100% human plasma, read-out: hGIPR 100% hP
# [9] = 100% human plasma, read-out: hGLP1R 100% hP
# T1 sequence (P43220 24-463): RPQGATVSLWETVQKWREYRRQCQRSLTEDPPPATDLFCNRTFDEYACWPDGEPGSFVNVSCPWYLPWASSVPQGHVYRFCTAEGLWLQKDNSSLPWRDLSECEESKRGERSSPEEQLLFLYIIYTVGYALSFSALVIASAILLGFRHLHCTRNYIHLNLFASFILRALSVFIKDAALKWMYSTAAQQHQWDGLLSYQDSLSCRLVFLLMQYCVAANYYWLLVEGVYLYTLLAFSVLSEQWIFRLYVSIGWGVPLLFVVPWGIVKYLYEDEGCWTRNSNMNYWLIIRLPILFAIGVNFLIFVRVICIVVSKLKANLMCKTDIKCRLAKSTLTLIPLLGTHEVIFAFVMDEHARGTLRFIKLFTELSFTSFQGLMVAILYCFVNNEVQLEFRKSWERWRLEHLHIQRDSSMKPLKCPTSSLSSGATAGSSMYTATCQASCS
"pEC50 [1, 6]","pEC50 [2, 7]","pEC50 [2, 8]",solubility at 2 h [3] [µg/mL],MRT [4] [h],"pEC50 [1, 9]",SMILES,Acute Food Intake 24 hours 100 nmol/kg [% CTL] [5] [% CTL]
9.52,10.00,8.77,10000,14.4,–,"CC[C@H](C)[C@H](NC(=O)[C@H](Cc1ccccc1)NC(=O)[C@H](C)NC(=O)C(C)(C)NC(=O)[C@H](CCC(N)=O)NC(=O)[C@H](C)NC(=O)[C@H](CCC(N)=O)NC(=O)[C@H](CCCCN)NC(=O)[C@H](CCC(=O)O)NC(=O)[C@H](CC(C)C)NC(=O)[C@](C)(CC(C)C)NC(=O)[C@@H](NC(=O)[C@H](CO)NC(=O)[C@H](Cc1ccc(O)cc1)NC(=O)[C@H](CC(=O)O)NC(=O)[C@H](CO)NC(=O)[C@@H](NC(=O)[C@H](Cc1ccccc1)NC(=O)[C@@H](NC(=O)CNC(=O)[C@H](CCC(=O)O)NC(=O)C(C)(C)NC(=O)[C@@H](N)Cc1ccc(O)cc1)[C@@H](C)O)[C@@H](C)O)[C@@H](C)CC)C(=O)N[C@@H](CCCNC(=N)N)C(=O)N[C@@H](Cc1c[nH]cn1)C(=O)N[C@@H](CC(C)C)C(=O)N[C@H](C(=O)N[C@@H](CC(N)=O)C(=O)N[C@@H](CCCCNC(=O)[C@@H](N)CCCCNC(=O)CC[C@H](NC(=O)CC[C@H](NC(=O)CC[C@H](NC(=O)CC[C@H](NC(=O)CC[C@H](NC(=O)CC[C@H](NC(=O)CCCCCCCCCCCCCCCCCCC(=O)O)C(=O)O)C(=O)O)C(=O)O)C(=O)O)C(=O)O)C(=O)O)C(=O)NC(C)(C)C(=O)N[C@H](C(=O)N[C@@H](CCCNC(=N)N)C(=O)N[C@@H](CCC(N)=O)C(=O)N[C@@H](CCCNC(=N)N)C(=O)N[C@@H](Cc1ccc(O)cc1)C(N)=O)[C@@H](C)O)[C@@H](C)CC [Compound 53, Y-Aib-E-G-T-F-T-S-D-Y-S-I-aMeL-L-E-K-Q-A-Q-Aib-A-F-I-R-H-L-I-N-K(1,3)-Aib-T-R-Q-R-Y-NH2.C20DA-gGlu-gGlu-gGlu-gGlu-gGlu-gGlu-eLys(1,2)]",47
10.00,10.00,9.10,9000,9.6,9.40,"CC[C@H](C)[C@H](NC(=O)[C@H](CC(C)C)NC(=O)[C@H](Cc1c[nH]cn1)NC(=O)[C@H](CCCNC(=N)N)NC(=O)[C@@H](NC(=O)[C@H](Cc1ccccc1)NC(=O)[C@H](C)NC(=O)C(C)(C)NC(=O)[C@H](CCC(N)=O)NC(=O)[C@H](C)NC(=O)[C@H](CCC(N)=O)NC(=O)[C@H](CCCCN)NC(=O)[C@H](CCC(=O)O)NC(=O)[C@H](CC(C)C)NC(=O)[C@](C)(CC(C)C)NC(=O)[C@@H](NC(=O)[C@H](CO)NC(=O)[C@H](Cc1ccc(O)cc1)NC(=O)[C@H](CC(=O)O)NC(=O)[C@H](CO)NC(=O)[C@@H](NC(=O)[C@H](Cc1ccccc1)NC(=O)[C@@H](NC(=O)CNC(=O)[C@H](CCC(=O)O)NC(=O)C(C)(C)NC(=O)[C@@H](N)Cc1ccc(O)cc1)[C@@H](C)O)[C@@H](C)O)[C@@H](C)CC)C(C)C)C(=O)N[C@@H](CC(N)=O)C(=O)N[C@@H](CCCCNC(=O)[C@@H](N)CCCCNC(=O)CC[C@H](NC(=O)CC[C@H](NC(=O)CC[C@H](NC(=O)CC[C@H](NC(=O)CC[C@H](NC(=O)CC[C@H](NC(=O)CCCCCCCCCCCCCCCCC(=O)O)C(=O)O)C(=O)O)C(=O)O)C(=O)O)C(=O)O)C(=O)O)C(=O)NC(C)(C)C(=O)N[C@H](C(=O)N[C@@H](CCCNC(=N)N)C(=O)N[C@@H](CCC(N)=O)C(=O)N[C@@H](CCCNC(=N)N)C(=O)N[C@@H](Cc1ccc(O)cc1)C(N)=O)[C@@H](C)O [Compound 119, Y-Aib-E-G-T-F-T-S-D-Y-S-I-aMeL-L-E-K-Q-A-Q-Aib-A-F-V-R-H-L-I-N-K(1,3)-Aib-T-R-Q-R-Y-NH2.C18DA-gGlu-gGlu-gGlu-gGlu-gGlu-gGlu-eLys(1,2)]",34
9.30,10.00,8.55,4800,15.9,8.77,"CC[C@H](C)[C@H](NC(=O)[C@H](CC(C)C)NC(=O)[C@H](Cc1c[nH]cn1)NC(=O)[C@H](CCCNC(=N)N)NC(=O)[C@@H](NC(=O)[C@H](Cc1ccccc1)NC(=O)[C@H](C)NC(=O)C(C)(C)NC(=O)[C@H](CCC(N)=O)NC(=O)[C@H](C)NC(=O)[C@H](CCC(N)=O)NC(=O)[C@H](CCCCN)NC(=O)[C@H](CCC(=O)O)NC(=O)[C@H](CC(C)C)NC(=O)[C@](C)(CC(C)C)NC(=O)[C@@H](NC(=O)[C@H](CO)NC(=O)[C@H](Cc1ccc(O)cc1)NC(=O)[C@H](CC(=O)O)NC(=O)[C@H](CO)NC(=O)[C@@H](NC(=O)[C@H](Cc1ccccc1)NC(=O)[C@@H](NC(=O)CNC(=O)[C@H](CCC(=O)O)NC(=O)C(C)(C)NC(=O)[C@@H](N)Cc1ccc(O)cc1)[C@@H](C)O)[C@@H](C)O)[C@@H](C)CC)C(C)C)C(=O)N[C@@H](CC(N)=O)C(=O)N[C@@H](CCCCNC(=O)[C@@H](N)CCCCNC(=O)CC[C@H](NC(=O)CC[C@H](NC(=O)CC[C@H](NC(=O)CC[C@H](NC(=O)CC[C@H](NC(=O)CC[C@H](NC(=O)CCCCCCCCCCCCCCCCCCC(=O)O)C(=O)O)C(=O)O)C(=O)O)C(=O)O)C(=O)O)C(=O)O)C(=O)NC(C)(C)C(=O)N[C@H](C(=O)N[C@@H](CCCNC(=N)N)C(=O)N[C@@H](CCC(N)=O)C(=O)N[C@@H](CCCNC(=N)N)C(=O)N[C@@H](Cc1ccc(O)cc1)C(N)=O)[C@@H](C)O [Compound 150, Y-Aib-E-G-T-F-T-S-D-Y-S-I-aMeL-L-E-K-Q-A-Q-Aib-A-F-V-R-H-L-I-N-K(1,3)-Aib-T-R-Q-R-Y-NH2.C20DA-gGlu-gGlu-gGlu-gGlu-gGlu-gGlu-eLys(1,2)]",46
8.52,9.15,–,6900,17.2,7.86,"CC[C@H](C)[C@H](NC(=O)[C@H](CC(C)C)NC(=O)[C@H](Cc1c[nH]cn1)NC(=O)[C@H](CCCNC(=N)N)NC(=O)[C@@H](NC(=O)[C@H](Cc1ccccc1)NC(=O)[C@H](C)NC(=O)C(C)(C)NC(=O)[C@H](CCC(N)=O)NC(=O)[C@H](C)NC(=O)[C@H](CCC(N)=O)NC(=O)[C@H](CCCCN)NC(=O)[C@H](CCC(=O)O)NC(=O)[C@H](CC(C)C)NC(=O)C(C)(C)NC(=O)[C@@H](NC(=O)[C@H](CO)NC(=O)[C@H](Cc1ccc(O)cc1)NC(=O)[C@H](CC(=O)O)NC(=O)[C@H](CO)NC(=O)[C@@H](NC(=O)[C@H](Cc1ccccc1)NC(=O)[C@@H](NC(=O)CNC(=O)[C@H](CCC(=O)O)NC(=O)C(C)(C)NC(=O)[C@@H](N)Cc1ccc(O)cc1)[C@@H](C)O)[C@@H](C)O)[C@@H](C)CC)C(C)C)C(=O)N[C@@H](CC(N)=O)C(=O)N[C@@H](CCCCNC(=O)CC[C@H](NC(=O)CC[C@H](NC(=O)CC[C@H](NC(=O)CC[C@H](NC(=O)CC[C@H](NC(=O)CC[C@H](NC(=O)CCCCCCCCCCCCCCCCCCC(=O)O)C(=O)O)C(=O)O)C(=O)O)C(=O)O)C(=O)O)C(=O)O)C(=O)NC(C)(C)C(=O)N[C@H](C(=O)N[C@@H](CCCNC(=N)N)C(=O)N[C@@H](CCC(N)=O)C(=O)N[C@@H](CCCNC(=N)N)C(=O)N[C@@H](Cc1ccc(O)cc1)C(N)=O)[C@@H](C)O [Compound 3, Y-Aib-E-G-T-F-T-S-D-Y-S-I-Aib-L-E-K-Q-A-Q-Aib-A-F-V-R-H-L-I-N-K(1,3)-Aib-T-R-Q-R-Y-NH2.C20DA-gGlu-gGlu-gGlu-gGlu-gGlu-gGlu(1,2)]",74
